Starred links: 1 amine or outer side, 2 acyl side, 3 side chain; linkers in the order of their positions; H or OH if unused. Positions of bridges follow the written chain, without caps; N, C: chain ends. Non-standard residues stand in square brackets, D forms with d. Residues, ends and D or L forms follow the SMILES beside them. *: point of attachment. Phe(3-CH2NH2) = O=C([C@H](Cc1cccc(CN[*:3])c1)N[*:1])[*:2]; DOTA = O=C(O)CN1CCN(CC(=O)O)CCN(CC(=O)*)CCN(CC(=O)O)CC1; Trp(5-F) = N[C@@H](Cc1c[nH]c2ccc(F)cc12)C(=O)O; Phe(3-F) = N[C@@H](Cc1cccc(F)c1)C(=O)O; Phe(4-F) = N[C@@H](Cc1ccc(F)cc1)C(=O)O; 1Nal = N[C@@H](Cc1cccc2ccccc12)C(=O)O; tBuAla = CC(C)(C)C[C@H](N)C(=O)O; aThr = C[C@H](O)[C@H](N)C(=O)O; Chg = N[C@H](C(=O)O)C1CCCCC1; NMeNle = CCCC[C@H](NC)C(=O)O; Tle = CC(C)(C)[C@H](N)C(=O)O; hLeu = CC(C)CC[C@H](N)C(=O)O; Nva = CCC[C@H](N)C(=O)O
Each molecule was assayed against T1, human 4lg B7-H3 (Homo sapiens, UniProt Q5ZPR3) (assay: Affinity determination by surface plasmon resonance (SPR) to 4Ig B7-H3). Conditions: SPR KD—25° C., 4Ig B7-H3; 25° C. flow cell temperature.
T1 sequence (Q5ZPR3 29-534): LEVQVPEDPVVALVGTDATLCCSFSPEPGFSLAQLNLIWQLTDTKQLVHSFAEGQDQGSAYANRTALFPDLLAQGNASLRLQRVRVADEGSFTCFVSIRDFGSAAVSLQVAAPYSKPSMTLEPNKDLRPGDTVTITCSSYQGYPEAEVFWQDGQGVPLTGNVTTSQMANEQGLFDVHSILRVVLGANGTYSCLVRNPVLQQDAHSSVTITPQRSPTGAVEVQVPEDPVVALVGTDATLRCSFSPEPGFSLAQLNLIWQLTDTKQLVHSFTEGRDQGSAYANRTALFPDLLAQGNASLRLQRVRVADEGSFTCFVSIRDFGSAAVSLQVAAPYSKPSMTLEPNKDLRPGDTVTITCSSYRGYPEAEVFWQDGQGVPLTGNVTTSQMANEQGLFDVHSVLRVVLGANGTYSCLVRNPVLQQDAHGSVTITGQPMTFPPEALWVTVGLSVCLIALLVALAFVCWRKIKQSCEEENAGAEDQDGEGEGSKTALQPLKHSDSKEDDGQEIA

Kd [nM]	SMILES
1 to 10	CC(=O)N[C@@H](CCC(C)C)C(=O)N[C@@H](Cc1ccc(O)cc1)C(=O)N[C@H]1CSSC[C@@H](C(=O)N[C@@H](Cc2c[nH]c3ccc(F)cc23)C(=O)N[C@@H](Cc2ccccc2)C(=O)N[C@H](C(=O)N[C@H](CCCCNC(=O)CN2CCN(CC(=O)O)CCN(CC(=O)O)CCN(CC(=O)O)CC2)C(N)=O)[C@@H](C)O)NC(=O)[C@H](Cc2ccc(F)cc2)NC(=O)[C@H](C(C)C)NC(=O)[C@H](CC(=O)O)NC(=O)[C@H](Cc2ccc(O)cc2)NC(=O)[C@H](CCCCN)NC(=O)CNC(=O)[C@H](C(C)C)NC1=O [compound 172, Ac-hLeu-Y-C-V-G-K-Y-D-V-4FPhe-C-5FW-F-Thr-dLys(DOTA)-CONH2] (Ac-[hLeu]YCVGKYDV[Phe(4-F)]C[Trp(5-F)]FT[dK](DOTA)-NH2; disulfide 3-11)
< 1	CC(=O)N[C@@H](CCC(C)C)C(=O)N[C@@H](Cc1ccc(O)cc1)C(=O)N[C@H]1CSSC[C@@H](C(=O)N[C@@H](Cc2c[nH]c3ccc(F)cc23)C(=O)N[C@@H](Cc2cccc(F)c2)C(=O)N[C@H](C(=O)N[C@H](CCCCNC(=O)CN2CCN(CC(=O)O)CCN(CC(=O)O)CCN(CC(=O)O)CC2)C(N)=O)[C@@H](C)O)NC(=O)[C@H](Cc2ccc(O)cc2)NC(=O)[C@H](C(C)C)NC(=O)[C@H](CC(=O)O)NC(=O)[C@H](Cc2ccc(O)cc2)NC(=O)[C@H](CCCCN)NC(=O)CNC(=O)[C@H](C(C)C)NC1=O [compound 173, Ac-hLeu-Y-C-V-G-K-Y-D-V-Y-C-5FW-3FPhe-Thr-dLys(DOTA)-CONH2] (Ac-[hLeu]YCVGKYDVYC[Trp(5-F)][Phe(3-F)]T[dK](DOTA)-NH2; disulfide 3-11)
10 to 100	CC(=O)N[C@@H](CCC(C)C)C(=O)N[C@@H](Cc1ccc(O)cc1)C(=O)N[C@H]1CSSC[C@@H](C(=O)N[C@@H](Cc2c[nH]c3ccc(F)cc23)C(=O)N[C@@H](Cc2ccccc2)C(=O)N[C@H](C(=O)N[C@H](CCCCNC(=O)CN2CCN(CC(=O)O)CCN(CC(=O)O)CCN(CC(=O)O)CC2)C(N)=O)[C@@H](C)O)NC(=O)[C@H](Cc2ccc(O)cc2)NC(=O)[C@H](C(C)C)NC(=O)[C@H](CC(=O)O)NC(=O)[C@H](Cc2ccc(O)cc2)NC(=O)[C@H](CCCCN)NC(=O)CNC(=O)[C@H](CC(C)(C)C)NC1=O [compound 174, Ac-hLeu-Y-C-tBuAla-G-K-Y-D-V-Y-C-5FW-F-Thr-dLys(DOTA)-CONH2] (Ac-[hLeu]YC[tBuAla]GKYDVYC[Trp(5-F)]FT[dK](DOTA)-NH2; disulfide 3-11)
1 to 10	CC(=O)N[C@@H](CCC(C)C)C(=O)N[C@@H](Cc1ccc(O)cc1)C(=O)N[C@H]1CSSC[C@@H](C(=O)N[C@@H](Cc2c[nH]c3ccc(F)cc23)C(=O)N[C@@H](Cc2ccccc2)C(=O)N[C@H](C(=O)N[C@H](CCCCNC(=O)CN2CCN(CC(=O)O)CCN(CC(=O)O)CCN(CC(=O)O)CC2)C(N)=O)[C@@H](C)O)NC(=O)[C@H](Cc2ccc(O)cc2)NC(=O)[C@H](C(C)C)NC(=O)[C@H](CC(=O)O)NC(=O)[C@H]([C@H](C)O)NC(=O)[C@H](CCCCN)NC(=O)CNC(=O)[C@H](C(C)C)NC1=O [compound 178, Ac-hLeu-Y-C-V-G-K-alloThr-D-V-Y-C-5FW-F-Thr-dLys(DOTA)-CONH2] (Ac-[hLeu]YCVGK[aThr]DVYC[Trp(5-F)]FT[dK](DOTA)-NH2; disulfide 3-11)

Further lines, the molecule ahead of its results:

SMILES	Kd [nM]
CCCC[C@@H](C(=O)N[C@H](C(=O)N[C@H](CCCCNC(=O)CN1CCN(CC(=O)O)CCN(CC(=O)O)CCN(CC(=O)O)CC1)C(N)=O)[C@@H](C)O)N(C)C(=O)[C@H](Cc1c[nH]c2ccc(F)cc12)NC(=O)[C@@H]1CSSC[C@H](NC(=O)[C@H](Cc2ccc(O)cc2)NC(=O)[C@H](CCC(C)C)NC(C)=O)C(=O)N[C@@H](C(C)C)C(=O)NCC(=O)N[C@@H](CCCCN)C(=O)N[C@@H](Cc2ccc(O)cc2)C(=O)N[C@@H](CC(=O)O)C(=O)N[C@@H](C(C)C)C(=O)N[C@@H](Cc2ccc(O)cc2)C(=O)N1 [compound 176, Ac-hLeu-Y-C-V-G-K-Y-D-V-Y-C-5FW-NMeNle-Thr-dLys(DOTA)-CONH2] (Ac-[hLeu]YCVGKYDVYC[Trp(5-F)][NMeNle]T[dK](DOTA)-NH2; disulfide 3-11)	1 to 10
CC(=O)N[C@@H](CCC(C)C)C(=O)N[C@@H](Cc1ccc(O)cc1)C(=O)N[C@H]1CSSC[C@@H](C(=O)N[C@@H](Cc2cccc3ccccc23)C(=O)N[C@@H](Cc2ccccc2)C(=O)N[C@H](C(=O)N[C@H](CCCCNC(=O)CN2CCN(CC(=O)O)CCN(CC(=O)O)CCN(CC(=O)O)CC2)C(N)=O)[C@@H](C)O)NC(=O)[C@H](Cc2ccc(O)cc2)NC(=O)[C@H](C2CCCCC2)NC(=O)[C@H](CC(=O)O)NC(=O)[C@H](Cc2ccc(O)cc2)NC(=O)[C@H](CCCCN)NC(=O)CNC(=O)[C@H](C(C)(C)C)NC1=O [compound 180, Ac-hLeu-Y-C-Tbg-G-K-Y-D-Chg-Y-C-1Nal-F-Thr-dLys(DOTA)-CONH2] (Ac-[hLeu]YC[Tle]GKYD[Chg]YC[1Nal]FT[dK](DOTA)-NH2; disulfide 3-11)	1 to 10
CC(=O)N[C@@H](CCC(C)C)C(=O)N[C@@H](Cc1ccc(O)cc1)C(=O)N[C@H]1CSSC[C@@H](C(=O)N[C@@H](Cc2c[nH]c3ccc(F)cc23)C(=O)N[C@@H](Cc2ccccc2)C(=O)N[C@H](C(=O)N[C@H](CCCCNC(=O)CN2CCN(CC(=O)O)CCN(CC(=O)O)CCN(CC(=O)O)CC2)C(N)=O)[C@@H](C)O)NC(=O)[C@H](Cc2ccc(O)cc2)NC(=O)[C@H](C2CCCCC2)NC(=O)[C@H](CC(=O)O)NC(=O)[C@H](Cc2ccc(O)cc2)NC(=O)[C@H](CCCCN)NC(=O)CNC(=O)[C@H](C(C)(C)C)NC1=O [compound 181, Ac-hLeu-Y-C-Tbg-G-K-Y-D-Chg-Y-C-5FW-F-Thr-dLys(DOTA)-CONH2] (Ac-[hLeu]YC[Tle]GKYD[Chg]YC[Trp(5-F)]FT[dK](DOTA)-NH2; disulfide 3-11)	1 to 10
CC(=O)N[C@@H](CCC(C)C)C(=O)N[C@@H](Cc1ccc(O)cc1)C(=O)N[C@H]1CSSC[C@@H](C(=O)N[C@@H](Cc2c[nH]c3ccc(F)cc23)C(=O)N[C@@H](Cc2ccccc2)C(=O)N[C@H](C(N)=O)[C@@H](C)O)NC(=O)[C@H](Cc2cccc(CNC(=O)CN3CCN(CC(=O)O)CCN(CC(=O)O)CCN(CC(=O)O)CC3)c2)NC(=O)[C@H](C(C)C)NC(=O)[C@H](CC(=O)O)NC(=O)[C@H](Cc2ccc(O)cc2)NC(=O)[C@H](CCCCN)NC(=O)CNC(=O)[C@H](C(C)C)NC1=O [compound 183, Ac-hLeu-Y-C-V-G-K-Y-D-V-MAF(DOTA)-C-5FW-F-Thr-CONH2] (Ac-[hLeu]YCVGKYDV[Phe(3-CH2NH2)](DOTA)C[Trp(5-F)]FT-NH2; disulfide 3-11)	1 to 10
CCC[C@@H]1NC(=O)[C@@H](NC(=O)[C@H](Cc2ccc(O)cc2)NC(=O)[C@H](CCC(C)C)NC(C)=O)CSSC[C@@H](C(=O)N[C@@H](Cc2c[nH]c3ccc(F)cc23)C(=O)N[C@@H](Cc2ccccc2)C(=O)N[C@H](C(=O)N[C@H](CCCCNC(=O)CN2CCN(CC(=O)O)CCN(CC(=O)O)CCN(CC(=O)O)CC2)C(N)=O)[C@@H](C)O)NC(=O)[C@H](Cc2ccc(O)cc2)NC(=O)[C@H](C(C)C)NC(=O)[C@H](CC(=O)O)NC(=O)[C@H](Cc2ccc(O)cc2)NC(=O)[C@H](CCCCN)NC(=O)CNC1=O [compound 184, Ac-hLeu-Y-C-Nva-G-K-Y-D-V-Y-C-5FW-F-Thr-dLys(DOTA)-CONH2] (Ac-[hLeu]YC[Nva]GKYDVYC[Trp(5-F)]FT[dK](DOTA)-NH2; disulfide 3-11)	1 to 10

From patent publication US20250296959A1, “B7-H3 TARGETING PEPTIDES AND CONSTRUCTS THEREOF” (Mariana Oncology Inc., priority 2024, published 2025)
